Assays:
Experiment in all cases: relative viability (nuclei count vs DMSO), 5 days (fraction); higher = more cells survive
[1] = compound: CS(=O)(=O)N1CCN(Cc2cc3nc(-c4cccc5[nH]ncc45)nc(N4CCOCC4)c3s2)CC1 [Pictilisib] + CC(C)C[C@H](NC(=O)[C@H](Cc1ccccc1)NC(=O)c1cnccn1)B(O)O [Bortezomib] (partner 0.002 µM)
How it was run: (§1)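 Dosing by pin tool came one day after lung cancer cell lines were seeded in 1536-well plates, using either one drug or a fixed anchor-drug dose plus five library-drug doses (not always all listed) in √10 steps. After 5 days, nuclei were counted on 4× images. Relative viability is treated-well nuclei count divided by vehicle-well nuclei count, and values are medians of duplicate plates.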

[2] = compound: CS(=O)(=O)N1CCN(Cc2cc3nc(-c4cccc5[nH]ncc45)nc(N4CCOCC4)c3s2)CC1 [Pictilisib] + Nc1nc2[nH]cc(CCc3ccc(C(=O)N[C@@H](CCC(=O)O)C(=O)O)cc3)c2c(=O)[nH]1 [Pemetrexed] (partner 0.2 µM)
How it was run: as §1

[3] = compound: NC1(c2ccc(-c3nc4ccn5c(=O)[nH]nc5c4cc3-c3ccccc3)cc2)CCC1 [MK-2206] + NC(=O)Nc1cc(-c2cccc(F)c2)sc1C(=O)N[C@H]1CCCNC1 [AZD7762] (partner 0.2 µM)
How it was run: as §1

[4] = compound: NC1(c2ccc(-c3nc4ccn5c(=O)[nH]nc5c4cc3-c3ccccc3)cc2)CCC1 [MK-2206] + CC(=O)Nc1cccc(-n2c(=O)n(C3CC3)c(=O)c3c(Nc4ccc(I)cc4F)n(C)c(=O)c(C)c32)c1 [Trametinib] (partner 0.02 µM)
How it was run: as §1

[5] = compound: NC1(c2ccc(-c3nc4ccn5c(=O)[nH]nc5c4cc3-c3ccccc3)cc2)CCC1 [MK-2206] + C[C@@H](Oc1cc(-c2cnn(C3CCNCC3)c2)cnc1N)c1c(Cl)ccc(F)c1Cl [Crizotinib] (partner 1 µM)
How it was run: as §1

Row | Cell Line | relative viability ([1]; first compound 0.02 µM) | relative viability ([1]; first compound 0.06325 µM) | relative viability ([1]; first compound 0.6325 µM) | relative viability ([1]; first compound 2 µM) | relative viability ([2]; first compound 0.02 µM) | relative viability ([2]; first compound 0.06325 µM) | relative viability ([2]; first compound 0.6325 µM) | relative viability ([2]; first compound 2 µM) | relative viability ([3]; first compound 0.01 µM) | relative viability ([3]; first compound 0.03162 µM) | relative viability ([3]; first compound 0.3162 µM) | relative viability ([3]; first compound 1 µM) | relative viability ([4]; first compound 0.01 µM) | relative viability ([4]; first compound 0.03162 µM) | relative viability ([4]; first compound 0.3162 µM) | relative viability ([4]; first compound 1 µM) | relative viability ([5]; first compound 0.01 µM) | relative viability ([5]; first compound 0.03162 µM) | relative viability ([5]; first compound 0.3162 µM) | relative viability ([5]; first compound 1 µM)
1 | PC-14 | 1.04 | 0.794 | 0.89 | 0.573 | 0.137 | 0.133 | 0.136 | 0.0862 | 0.326 | 0.243 | 0.329 | 0.366 | 0.557 | 0.876 | 0.516 | 0.704 | 0.826 | 0.928 | 0.914 | 0.879
2 | HCC-78 | 0.458 | 0.384 | 0.294 | 0.2 | 0.894 | 0.911 | 0.861 | 0.893 | 0.66 | 0.608 | 0.624 | 0.538 | 0.746 | 0.832 | 0.786 | 0.907 | 0.348 | 0.33 | 0.289 | 0.286
3 | NCI-H1666 | 0.854 | 0.744 | 0.545 | 0.388 | 0.947 | 0.846 | 0.737 | 0.725 | 0.808 | 0.858 | 0.962 | 0.806 | 0.925 | 0.79 | 0.807 | 0.892 | 0.965 | 1.12 | 0.789 | 0.892
4 | LU99A | 1.36 | 1.18 | 0.757 | 0.514 | 0.198 | 0.179 | 0.19 | 0.164 | 0.376 | 0.169 | 0.332 | 0.362 | 0.524 | 0.537 | 0.473 | 0.553 | 0.609 | 0.647 | 0.524 | 0.535
5 | NCI-H596 | 1.02 | 1.09 | 0.487 | 0.435 | 0.472 | 0.508 | 0.509 | 0.318 | 1.16 | 1.06 | 1.05 | 1.01 | 0.728 | 0.756 | 0.713 | 0.603 | 0.978 | 1 | 0.898 | 0.736
6 | 201T | 1.12 | 1.1 | 1.07 | 0.993 | 0.301 | 0.352 | 0.289 | 0.276 | 0.663 | 0.431 | 0.649 | 0.599 | 0.688 | 0.753 | 0.743 | 0.724 | 1.02 | 1.07 | 1.03 | 1.01
7 | HCC-15 | 1.01 | 1.01 | 1.02 | 0.899 | 0.224 | 0.224 | 0.224 | 0.202 | 1.01 | 1.24 | 1.24 | 1.23 | 0.362 | 0.387 | 0.309 | 0.295 | 0.824 | 0.823 | 0.868 | 0.769

Source: the supplement of paper PMC10307832
